Laboratory results: US20250134895A1, “METHODS AND COMPOSITIONS FOR TREATING ALPHA-SYNUCLEIN-MEDIATED NEURODEGENERATION” (UNIVERSITY HEALTH NETWORK, priority 2021, published 2025)

How the values were obtained:
α-synuclein protein = assay: Immunoblot for α-synuclein protein in lysates of treated C. elegans; assay type: in vivo, Caenorhabditis elegans; details: 50 μM
From the text: The chaperone system is composed of chaperone proteins, such as HSP70 (heat shock protein 70), and co-chaperones. Together, these proteins are integral to maintaining cellular protein quality control by folding newly translated polypeptides into their native conformation, refolding misfolded proteins to prevent their aggregation, and targeting proteins to degradation pathways, such as the autophagy-lysosomal system or ubiquitin-proteasome system, when refolding is unsuccessful. From the above in vitro findings, it was predicted that perturbations to the chaperone system in vivo would affect coiling of the transgenic α-synuclein C. elegans. To test this prediction, we treated the animals were treated with the geldanamycin analogue, 17-(allylamino)-17-demethoxygeldanamycin (17-AAG). […]
Synchronized animals (4 or 5 days old) were lysed in 0.5X Tris-HCl buffer with 0.5% Triton X-100 at 100° C. for 5 minutes and then passed through a 23-gauge needle 10 times. […] Protein concentration was determined with a Bio-Rad Lowry protein assay (Bio-RAD, 5000116) according to the manufacturer's instructions. […] Beads were washed and samples were analysed by immunoblotting and mass spectrometry (see below). […] Signals were detected with ECL (ThermoFisher, 32132) and developed on HyBlot CL autoradiography film (DV-E3018).

[1] = system: transgenic A30P α-synuclein C. elegans; assay: Coiler score and locomotion of C. elegans expressing A30P α-synuclein in dopaminergic neurons; assay type: in vivo, Caenorhabditis elegans
Description: Using high-resolution, multi-worm tracking with custom image processing, methods were developed for semi-automated and blinded scoring of circularity for a population of simultaneously recorded animals (n=10 per recording). A coiler score was determined for the population tested by first calculating the circularity value for each animal in each frame of video and then calculating the proportion of circularity values >0.6. […] The coiler phenotype is an abnormal motor behaviour previously reported for several unc C. elegans strains with mutations affecting neuronal function.
Animals were synchronized by isolating eggs using alkaline hypochlorite treatment and hatching overnight. Larvae were plated onto NGM agar plates with OP50 and grown for 4 days before recording locomotion. For individual C. elegans recordings, a single adult animal was randomly picked, washed for 1 to 2 minutes in M9 buffer, and then transferred to a fresh NGM plate without food for imaging. Video images were acquired (2 frames per second) for up to 6 minutes using a sCMOS camera (pco.edge, PCO) mounted on a stereomicroscope (Olympus MVX10 MacroView) controlled using the μManager software.^55 A total of 40 individual animals were imaged for each strain. For C. elegans population recordings, ten adult animals were randomly removed using an eyelash pick, washed for 1 minute in M9 buffer, and then transferred to a fresh NGM plate without food, with a ring of copper sulfate solution (150 mM) around the area of recording (a chemorepellent to keep the animals in the recording frame). Exploratory locomotion was recorded using a CCD camera (GX1920, Allied Vision) which was attached to a dissecting stereomicroscope (Leica M165C, 1.0× PlanApo lens). A Labview program captured video (2 frames per second) at 1936×1456 resolution. Using ImageJ, the displacement, perimeter, and area of each animal was calculated, from which a circularity value was computed using the following formula: circularity=4π(A/P^2), where A is the area of the animal's body and P is the perimeter of the animal's body (both expressed in arbitrary pixel units). […] Using MATLAB (Mathworks), various behavioural metrics including the coiler score were calculated, which is the percentage of frames with a circularity value >0.6. Speed was automatically computed from the ImageJ based WrmTrk plugin as the distance travelled by each animal (in pixels) over the amount of time that it was tracked (in seconds).56 Average speed was determined by calculating the weighted average of each tracked animal's speed within a single population of animals. On the day of the recording for dopamine or raclopride treatment, adult animals were washed for 1 minute in M9 buffer, treated in a solution containing either drug for 1 minute, and then placed onto fresh NGM plates without food, with a copper sulfate solution ring around the area of recording. […] Drug plates were prepared by adding each drug to LB medium with OP50 before spreading onto fresh NGM plates. The solvent used to dissolve each drug was used as vehicle control for the drug treatment experiments (M9 buffer for dopamine, distilled water for raclopride, DMSO for all other drugs).
After 72 hours of drug treatment, animals were randomly picked, washed, and recorded. A total of ten worms were recorded per population, and twelve populations were recorded for each of the four treatment groups. Locomotion was recorded for each population over a total of 1800 frames over three minutes. The animal's movement speed, area, and perimeter were automatically analyzed as previously described. Coiler score was calculated automatically using a ratio of the animal's area to perimeter, where a higher coiler score would represent a greater degree of α-synuclein-induced dopaminergic neuron dysfunction in vivo.

α-synuclein oligomers [2] = target: T1, α-synuclein oligomers (Homo sapiens, UniProt P37840); assay: Immunoblot of crosslinked split YFP-tagged α-synuclein oligomers in rat primary cortical neuron lysates; assay type: cell-based; set-up: full-length human α-synuclein fused to the N-terminal fragment of Venus YFP (V1 S); full-length human α-synuclein fused to the C-terminal fragment of Venus YFP (SV2); host or cells: rat (Sprague Dawley, E17) primary cortical neurons, AAV co-transduction; details: losartan 100 μM, rapamycin 50 nM, rifabutin 20 μM
Description: FIGS. 7A-7E. […] (a) Five positive hits were tested for their ability to reduce α-synuclein oligomer levels in rat primary cortical neurons measured with YFP-based protein-fragment complementation. […] Fluorescence intensity was analyzed using Imaris image analysis software by measuring the mean fluorescence intensity of α-synuclein positive neurons throughout a 3D field of view generated by z-stack image acquisition using the “surfaces” module. The value generated for each neuron was normalized to the mean fluorescence intensity of neurons treated with vehicle alone (N=3-4 replicates of n=10 fields of view for each treatment; each data point represents an individual replicate) (nested one-way ANOVA with Dunnett's post-hoc test, *p<0.05, *** p<0.001). […] Bottom: Representative fluorescent microscopy images of neurons treated with vehicle, losartan, rapamycin, or rifabutin and expressing YFP alone. Scale bars are […]. (e) Representative immunoblot to detect oligomers of split YFP-tagged α-synuclein (crosslinked) in rat primary cortical neuron lysates (actin used as a loading control).
Finally, it was examined whether these 5 compounds that had effects in our invertebrate C. elegans model reduce α-synuclein oligomers and α-synuclein-mediated dopaminergic neurodegeneration in mammalian systems.

α-synuclein oligomers [3] = target: T1, α-synuclein oligomers; assay: Venus YFP protein-fragment complementation assay in rat primary cortical neurons; assay type: cell-based; details: 72 hours; losartan 100 μM, rapamycin 50 nM, rifabutin 20 μM
Description: Specifically, adeno-associated viral vectors (AAV) were used to co-express human α-synuclein tagged with the N- or C-terminal half of Venus yellow fluorescent protein (YFP) in rat cortical neurons.
Pregnant Sprague Dawley rats (E17) were purchased from Charles River. Embryos were surgically removed, and neurons were harvested in a sterile environment. Neurons were plated on poly-D-lysine coated glass coverslips at a density of 5×10^5 cells per well in Neurobasal-A medium, (Gibco, 10888022) supplemented with B27 (2%) (Gibco, 17504044), antibiotic-antimycotic (1%) (Gibco, 15240062), and Glutamax (1%) (Gibco, 35050061). Fifty percent media changes were performed every 3 days. […] Two days post isolation, neurons were co-transduced with AAV-V1 S and AAV-SV2 or transduced with AAV-Venus alone at a MOI of 3,000. […] Concentrations were selected to avoid neuron toxicity according to previous reports.^57-61 Drug-containing media was removed, and cells were washed 1 time with ice-cold PBS before being fixed with 4% PFA (Sigma) at room temperature for 10 minutes. Levels of α-synuclein oligomers were measured by YFP fluorescence. […] YFP fluorescence intensity was analysed automatically using Imaris imaging software (Oxford Instruments). […]

[4] = system: full-length Gaussia princeps luciferase; assay: Activity of full-length Gaussia luciferase alone in H4 cells; assay type: cell-based; details: Example 5, FIG. 5c
Description: (§1) For controls in this assay, vehicle (i.e., DMSO), rapamycin, and bafilomycin A were used. Rapamycin, or sirolimus, is a small molecule that activates autophagy by inhibiting mTOR (mammalian target of rapamycin). […] To test this possibility, cells expressing α-synuclein were treated with each of the compounds and a cell permeable, resazurin-based assay was used to test for cell viability.
(§2) H4 neuroglioma cells (ATCC, HTB-148) were maintained in Dulbecco's Modified Eagle Medium plus high glucose, L-glutamine, and sodium pyruvate (ThermoFisher, 11995-065) with 10% heat-inactivated fetal bovine serum (ThermoFisher, 16140071) and 1% antibiotic-antimycotic cocktail (ThermoFisher, 15240062) at 37° C. and 5% CO2. DNA expression constructs encoding for full-length human α-synuclein fused to the N-terminal fragment of Gaussia princeps luciferase (syn-luc1), full-length human α-synuclein fused to the C-terminal fragment of Gaussia princeps luciferase (syn-luc2), and full-length Gaussia princeps luciferase were kindly provided by Dr. Pamela McLean, Mayo Clinic Jacksonville.^33 Cells were transiently co-transfected with syn-luc1 and syn-luc2 or transfected with luciferase alone using Superfect transfection reagent (Qiagen, 301305) according to the manufacturer's instructions. Twenty-four hours after transfection, cells were plated on a 96-well microplate at 60,000 cells per well. Twenty-four hours after plating, cells were treated with drugs or vehicle control. Following 24 hours of treatment, cells were washed 1 time with PBS and bioluminescence was measured using an automated CLARIOstar plate reader (Mandel, 430-0505). Cell permeable, native coelenterazine was used as the Gaussia luciferase substrate. Lyophilized coelenterazine (Nanolight, 303-500) was reconstituted in NanoFuel Solvent (Nanolight, 399-1), then diluted in PBS to 16.6 μg/mL, and dispensed per well to a final concentration of 20 μM). The bioluminescent signal generated by the luciferase enzyme was assessed at 470 nm over 5 seconds. Raw luminescence units were normalized to the DMSO vehicle control of each 96-well microplate. To assess cell viability, H4 neuroglioma cells were prepared and treated as described above and, 1 hour prior to viability analysis, cells were treated with PrestoBlue viability reagent (ThermoFisher, A13261) according to the manufacturer's instructions. Fluorescence was automatically measured using a CLARIOstar plate reader (Mandel, 430-0505) and then normalized to the fluorescence measure of the DMSO vehicle control.

H4 neuroglioma cells = system: H4 neuroglioma cells
Description: as §1, §2

α-synuclein oligomers [5] = target: T1, α-synuclein oligomers; assay: Gaussia luciferase protein-fragment complementation cell assay of α-synuclein oligomers in H4 neuroglioma cells; assay type: cell-based; set-up: full-length human α-synuclein fused to the N-terminal fragment of Gaussia princeps luciferase (syn-luc1); full-length human α-synuclein fused to the C-terminal fragment of Gaussia princeps luciferase (syn-luc2); expressed in transfected cells; host or cells: H4 neuroglioma cells (ATCC, HTB-148), transient co-transfection; details: 1 μM or 10 μM, 24 hours of treatment
Description: as §1, §2
We used a bioluminescent protein-fragment complementation assay in which human H4 neuroglioma cells co-express human α-synuclein tagged with the N- or C-terminal half of Gaussia princeps luciferase (FIG. 12). Reconstitution of a complete and active luciferase molecule from the fragments occurs upon α-synuclein oligomerization, and so luminescence provides an indirect measure of α-synuclein oligomer levels. H4 neuroglioma cells were co-transfected with α-syn luciferase fragments, and constructs were plated into a 96-well plate and treated with either 1 μM or 10 μM of each of the 19 drug compounds.

SMILES | α-synuclein protein levels (α-synuclein protein) | reduced coiling compared with vehicle control ([1]; 50 μM) [%] | α-synuclein oligomers as detected by immunoblotting (α-synuclein oligomers [2]) | decrease in fluorescence compared with vehicle alone (α-synuclein oligomers [3]) [%] | changes in the activity of full-length Gaussia luciferase alone [4] | changes in viability (H4 neuroglioma cells) | decrease in luciferase activity compared with vehicle alone (α-synuclein oligomers [5]) [%] | reduction in coiling compared with vehicle alone (decrease) ([1]; 100 μM of drug, 3 days on drug plates) [%]
C=CCNC1=C2C[C@@H](C)C[C@H](OC)[C@H](O)[C@@H](C)/C=C(\C)[C@H](OC(N)=O)[C@@H](OC)/C=C\C=C(/C)C(=O)NC(=CC1=O)C2=O [17-AAG, 17-(allylamino)-17-demethoxygeldanamycin] | lower | 51 | – | – | – | – | – | –
CCCCc1nc(Cl)c(CO)n1Cc1ccc(-c2ccccc2-c2nnn[nH]2)cc1 [Losartan, losartan] | – | – | reduction | 33 | No statistically significant changes | No statistically significant changes | 16 | 45
